Article PMC2932787 (Journal of the American Society for Mass Spectrometry, 2010)
Like-named read-outs stand apart in the source and are kept apart here.

Legend:
[1] = target: calcium-saturated calmodulin (CaM·4Ca^2+) (Homo sapiens, UniProt P0DP23)
[2] = target: calcium-saturated calmodulin (CaM·4Ca^2+) (Sus scrofa, UniProt F2Z5G3)
calmodulin [3] = settings: read-out: dissociation constant; 25°C, pH 7.3; fluorescence of dansylcalmodulin; ref [33]; cited from earlier work
calmodulin [4] = settings: read-out: dissociation constant; 4°C, pH 7.0; equilibrium dialysis; ref [35]; cited from earlier work
calmodulin [5] = settings: amino- and carboxy-terminal deletion peptides; ref [38]; cited from earlier work
[6] = target: Porcine calmodulin saturated with calcium (CaM·4Ca2+) (porcine); test: HDX-MS
[7] = target: Porcine calmodulin saturated with calcium (CaM·4Ca2+) (porcine); test: HDX-MS; remark: listed apart in the source
[8] = from ΔD1, corrected for 50% D2O

Sequence of β-endorphin (P01189 237-267): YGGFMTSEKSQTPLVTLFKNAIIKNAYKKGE

Row | Molecule | backbone amide protons of CaM·4Ca^2+ that become protected on binding [1, 8] | ΔD1 (difference in deuterium uptake of the protein on binding) ([1]; traditional PLIMSTEX, protein mass readout, 50% D2O) | ΔD1 (difference in deuterium uptake between bound and unbound peptide) ([2]; dPLIMSTEX, peptide mass readout, 50% D2O) | backbone amides of the peptide protected upon binding to CaM·4Ca^2+ [2, 8] | Kd (calmodulin [3]) [µM] | Kd (calmodulin [4]) [µM] | domain responsible for inhibition of calmodulin function (calmodulin [5]) | Ka [6] [M⁻¹] | Kd [6] [µM] | Ka [7] [M⁻¹] | Kd [7] [µM]
1 | CC[C@H](C)[C@H](NC(=O)[C@H](C)NC(=O)[C@H](CC(N)=O)NC(=O)[C@H](CCCCN)NC(=O)[C@H](Cc1ccccc1)NC(=O)[C@H](CC(C)C)NC(=O)[C@@H](NC(=O)[C@@H](NC(=O)[C@H](CC(C)C)NC(=O)[C@@H]1CCCN1C(=O)[C@@H](NC(=O)[C@H](CCC(N)=O)NC(=O)[C@H](CO)NC(=O)[C@H](CCCCN)NC(=O)[C@H](CCC(=O)O)NC(=O)[C@H](CO)NC(=O)[C@@H](NC(=O)[C@H](CCSC)NC(=O)[C@H](Cc1ccccc1)NC(=O)CNC(=O)CNC(=O)[C@@H](N)Cc1ccc(O)cc1)[C@@H](C)O)[C@@H](C)O)C(C)C)[C@@H](C)O)C(=O)N[C@H](C(=O)N[C@@H](CCCCN)C(=O)N[C@@H](CC(N)=O)C(=O)N[C@@H](C)C(=O)N[C@@H](Cc1ccc(O)cc1)C(=O)N[C@@H](CCCCN)C(=O)N[C@@H](CCCCN)C(=O)NCC(=O)N[C@@H](CCC(=O)O)C(=O)O)[C@@H](C)CC [β-endorphin] | approximately 30 | 15.0 | 3.96 ± 0.09 | at least eight | 1.9 to 3.8 | 2.5 to 4.6 | residues 14–25 | – | – | – | –
2 | β-endorphin (from UniProt P01189 237-267) (peptide) | – | – | – | – | – | – | – | 220000 | 4.5 | 205000 | 4.9
